Data as given in patent publication US10000451B2, “MAP4K4 (HGK) inhibitors” (SRI INTERNATIONAL, priority 2015, dated 2018).
Read-outs that look alike come from different tables or passages of the source.

Legend:
MAP4K4 = MAP4K4 (Homo sapiens, UniProt O95819); test: MAP4K4 kinase assay (in-house); assay type: biochemical
Source text: Signaling pathways mediating anticancer activity. […] We established the MAP4K4 kinase assay in-house and confirmed that the compounds are indeed potent MAP4K4 inhibitors.

MOLT4 = test: Activity against cancer cell lines; assay type: cell-based; settings: Homo sapiens, MOLT-4
Source text: (§1) Exemplary data is shown below.

LOXIMVI = test: Activity against cancer cell lines; assay type: cell-based; settings: Homo sapiens, LOX IMVI
Source text: as §1

SKMEL5 = test: Activity against cancer cell lines; assay type: cell-based; settings: Homo sapiens, SK-MEL-5
Source text: as §1

HCT15 = test: Activity against cancer cell lines; assay type: cell-based; settings: Homo sapiens, HCT-15
Source text: as §1

SF539 = test: Activity against cancer cell lines; assay type: cell-based; settings: Homo sapiens, SF-539
Source text: as §1

OVCAR8 = test: Activity against cancer cell lines; assay type: cell-based
Source text: as §1

MDAMB435 = test: Activity against cancer cell lines; assay type: cell-based; settings: Homo sapiens, MDA-MB-435
Source text: as §1

OVCAR4 = test: Activity against cancer cell lines; assay type: cell-based
Source text: as §1

NCIH522 = test: Activity against cancer cell lines; assay type: cell-based; settings: Homo sapiens, NCI-H522
Source text: as §1

SF295 = test: Activity against cancer cell lines; assay type: cell-based; settings: Homo sapiens, SF-295
Source text: as §1

A498 = test: Activity against cancer cell lines; assay type: cell-based; settings: Homo sapiens
Source text: as §1

SKMEL2 = test: Activity against cancer cell lines; assay type: cell-based; settings: Homo sapiens, SK-MEL-2
Source text: as §1

MCF7 = test: Activity against cancer cell lines; assay type: cell-based; settings: Homo sapiens
Source text: as §1

ADRRES = test: Activity against cancer cell lines; assay type: cell-based
Source text: as §1

CAKI1 = test: Activity against cancer cell lines; assay type: cell-based; settings: Homo sapiens, CAKI-1
Source text: as §1

ACHN = test: Activity against cancer cell lines; assay type: cell-based; settings: Homo sapiens
Source text: as §1

SNB75 = test: Activity against cancer cell lines; assay type: cell-based
Source text: as §1

RXF393 = test: Activity against cancer cell lines; assay type: cell-based; settings: Homo sapiens, RXF 393
Source text: as §1

M14 = test: Activity against cancer cell lines; assay type: cell-based; settings: Homo sapiens
Source text: as §1

HL60 = test: Activity against cancer cell lines; assay type: cell-based
Source text: as §1

UO31 = test: Activity against cancer cell lines; assay type: cell-based; settings: Homo sapiens, UO-31
Source text: as §1

[1] = Metabolic stability in liver microsomes; assay type: in vitro ADME; settings: NADPH, 10 μM
Method: The compounds are experimentally predicted to have a longer half-life in humans. We conducted metabolic stability studies in human and mouse liver microsomes. Metabolic stability in pooled human or mouse liver microsomes, in the presence of NADPH, was measured with 10 μM compound over 60 min.

DU-145 = test: Prostate cancer cell proliferation assay; assay type: cell-based; settings: Homo sapiens; DU-145, 72 hours; read-out: IC50 against prostate cancer cell lines
Source text: (§2) The dose-response curves of cell growth inhibition were consistent.
(§3) Cell proliferation assays.

LNCaP = test: Prostate cancer cell proliferation assay; assay type: cell-based; settings: Homo sapiens, 72 hours, read-out: IC50 against prostate cancer cell lines
Source text: as §2, §3

PC-3 = test: Prostate cancer cell proliferation assay; assay type: cell-based; settings: Homo sapiens; PC-3, 72 hours; read-out: IC50 against prostate cancer cell lines
Source text: as §2, §3

T47D = test: Breast cancer cell line growth inhibition; assay type: cell-based; settings: Homo sapiens, ER (+), read-out: IC50 against breast cancer cell lines
Source text: (§4) Generally, their potency is positively correlated with MAP4K4 expression in cancer cell lines.

HS578T = test: Breast cancer cell line growth inhibition; assay type: cell-based; settings: Homo sapiens, Hs-578T, triple negative, read-out: IC50 against breast cancer cell lines
Source text: as §4

MDA-MB-231 = test: Breast cancer cell line growth inhibition; assay type: cell-based; settings: Homo sapiens; MDA-MB-231, triple negative; read-out: IC50 against breast cancer cell lines
Source text: as §4

MCF-7 = test: Breast cancer cell line growth inhibition; assay type: cell-based; settings: Homo sapiens, MCF7; MCF-7, ER (+); read-out: IC50 against breast cancer cell lines
Source text: as §4

BT549 = test: Breast cancer cell line growth inhibition; assay type: cell-based; settings: Homo sapiens, BT-549; BT549, triple negative; read-out: IC50 against breast cancer cell lines
Source text: as §4

[2] = In vivo pharmacokinetic study, oral formulations; settings: mouse, plasma, 60 mg/kg, mice
Method: In vivo pharmacokinetic (PK) studies; oral bioavailability. We conducted pre-formulation studies and selected different oral formulations for mice PK studies to explore the effect of formulation on drug absorption.
The PK profiles of representative compounds (60 mg/kg) were determined in different oral formulations (HPC and PTTW) with groups of three mice per time point.

[3] = tested on: caspase-3 and -7 activities; test: Caspase-Glo 3/7 apoptosis assay; assay type: cell-based; settings: 20 nM
Source text: Efficacy-related endpoints. We conducted an in-depth mechanism of action study in androgen-sensitive (LNCaP) and -insensitive (PC-3 and DU-145) prostate cancer cell lines.
Apoptosis assay. The Caspase-Glo® 3/7 Assay (Promega), a homogeneous, luminescent assay that measures caspase-3 and -7 activities, was used to access apoptosis induction.

CCRFCEM = test: Activity against cancer cell lines; assay type: cell-based
Source text: as §1

Chain of MAP4K4 (O95819 whole entry): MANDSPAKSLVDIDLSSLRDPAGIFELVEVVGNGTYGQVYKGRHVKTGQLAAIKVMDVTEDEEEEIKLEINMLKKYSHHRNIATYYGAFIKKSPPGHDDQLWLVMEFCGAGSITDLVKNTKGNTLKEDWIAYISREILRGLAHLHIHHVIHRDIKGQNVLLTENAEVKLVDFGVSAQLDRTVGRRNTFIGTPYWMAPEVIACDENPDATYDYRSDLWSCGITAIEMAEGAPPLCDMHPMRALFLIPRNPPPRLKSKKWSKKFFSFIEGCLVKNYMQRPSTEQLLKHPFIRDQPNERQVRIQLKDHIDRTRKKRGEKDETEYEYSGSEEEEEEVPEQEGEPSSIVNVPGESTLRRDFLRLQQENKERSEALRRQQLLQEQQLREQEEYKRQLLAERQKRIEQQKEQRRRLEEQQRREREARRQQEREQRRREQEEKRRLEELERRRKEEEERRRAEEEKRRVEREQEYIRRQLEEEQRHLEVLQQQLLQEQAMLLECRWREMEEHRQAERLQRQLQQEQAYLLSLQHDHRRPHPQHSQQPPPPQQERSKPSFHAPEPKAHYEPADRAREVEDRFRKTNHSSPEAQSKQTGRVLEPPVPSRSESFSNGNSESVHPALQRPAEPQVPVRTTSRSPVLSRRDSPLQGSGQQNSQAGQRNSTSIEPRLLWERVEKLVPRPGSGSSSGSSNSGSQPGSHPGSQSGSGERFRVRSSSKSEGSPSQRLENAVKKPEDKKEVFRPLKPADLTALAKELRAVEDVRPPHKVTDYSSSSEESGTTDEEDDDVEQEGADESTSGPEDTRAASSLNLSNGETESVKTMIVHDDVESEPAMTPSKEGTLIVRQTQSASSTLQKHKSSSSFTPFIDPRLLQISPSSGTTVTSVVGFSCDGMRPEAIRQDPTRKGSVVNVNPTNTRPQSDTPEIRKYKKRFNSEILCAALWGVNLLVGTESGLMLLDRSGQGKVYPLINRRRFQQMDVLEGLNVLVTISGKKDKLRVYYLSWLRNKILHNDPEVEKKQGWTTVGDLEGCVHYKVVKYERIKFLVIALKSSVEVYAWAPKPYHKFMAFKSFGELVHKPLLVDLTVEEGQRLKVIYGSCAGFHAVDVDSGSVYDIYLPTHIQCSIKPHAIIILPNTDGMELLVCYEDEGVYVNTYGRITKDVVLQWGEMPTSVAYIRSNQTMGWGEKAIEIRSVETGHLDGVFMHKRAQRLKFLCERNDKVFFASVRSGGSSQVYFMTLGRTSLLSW

Molecule `COc1ccc2[nH]c(C(=O)c3ccc4[nH]ccc4c3)cc2c1` [Cmpd 1, (1H-indol-5-yl)(5-methoxy-1H-indol-2-yl)methanone] has an IC50 (MAP4K4) of 160 nM, an IC50 (MOLT4) of 53 nM and an IC50 (LOXIMVI) of 14 nM. For the same molecule, the IC50 (SKMEL5) was 33 nM, the IC50 (HCT15) was 27 nM and the IC50 (SF539) was 39 nM. It also gave an IC50 (OVCAR8; Homo sapiens, OVCAR-8, OVCAR8) of 67 nM, an IC50 (OVCAR8; OVCAR8) of 53 nM and an IC50 (MDAMB435) of 21 nM. It also gave an IC50 (OVCAR4; Homo sapiens, OVCAR-4, OVCAR4) of 90 nM, an IC50 (OVCAR4; OVCAR4) of 56 nM and an IC50 (NCIH522) of 32 nM. For the same molecule, the IC50 (SF295) was 54 nM, the IC50 (A498) was 52 nM and the IC50 (SKMEL2) was 63 nM. The IC50 (MCF7) was 59 nM, the IC50 (ADRRES) was 27 nM and the IC50 (CAKI1) was 23 nM. It also gave an IC50 (ACHN) of 5.7 nM, an IC50 (SNB75; Homo sapiens, SNB-75, SNB75) of 42 nM and an IC50 (SNB75; SNB75) of 34 nM. The IC50 (RXF393) was 38 nM, the IC50 (M14) was 38 nM and the IC50 (HL60; HL60) was 24 nM. It also gave an IC50 (HL60; Homo sapiens, HL-60, HL60) of 35 nM and an IC50 (UO31) of 66 nM.

For `COc1ccc2[nH]c(C(=O)c3ccc4[nH]nc(C)c4c3)cc2c1` [Cmpd 18, (5-methoxy-1H-indol-2-yl)(3-methyl-1H-indazol-5-yl)methanone], the IC50 (MAP4K4) was 140 nM, the “% of Parent Compound Remaining vs T = 0 min” value (“% of Parent Compound Remaining” for short) ([1]; human liver microsomes, 15 min) was 72.9% and the “% of Parent Compound Remaining” value ([1]; human liver microsomes, 30 min) was 63.1%. The “% of Parent Compound Remaining” value ([1]; human liver microsomes, 60 min) was 53.0%, the “% of Parent Compound Remaining” value ([1]; mouse liver microsomes, 15 min) was 31.6% and the “% of Parent Compound Remaining” value ([1]; mouse liver microsomes, 30 min) was 9.9%. For the same molecule, the “% of Parent Compound Remaining” value ([1]; mouse liver microsomes, 60 min) was 1.0%, the IC50 (DU-145) was 23 nM and the IC50 (LNCaP) was 16 nM. It also gave an IC50 (PC-3) of 11 nM, an IC50 (T47D) of 29 nM and an IC50 (HS578T) of 13 nM. For the same molecule, the IC50 (MDA-MB-231) was 14 nM, the IC50 (MCF-7) was 83 nM and the IC50 (BT549) was 12 nM. It also gave a concentration at 0.5 h ([2]; oral 60 mg/kg in 0.5% HPC) of 319 ± 106 ng/mL, a concentration at 4 h ([2]; oral 60 mg/kg in 0.5% HPC) of 33 ± 21 ng/mL and a concentration at 8 h ([2]; oral 60 mg/kg in 0.5% HPC) of 34.7 ± 18.8 ng/mL. It also gave a concentration at 24 h ([2]; oral 60 mg/kg in 0.5% HPC) of 1.3 ± 2.3 ng/mL, a concentration at 0.5 h ([2]; oral 60 mg/kg in PTTW) of 798 ± 204 ng/mL and a concentration at 4 h ([2]; oral 60 mg/kg in PTTW) of 75.5 ± 19.3 ng/mL. For the same molecule, the concentration at 8 h ([2]; oral 60 mg/kg in PTTW) was 21.7 ± 11.1 ng/mL, the concentration at 24 h ([2]; oral 60 mg/kg in PTTW) was 15.4 ± 7.2 ng/mL and the apoptosis induction ([3]; 24 hours treatment) was “significantly induced apoptosis”. For the same molecule, the apoptosis induction ([3]; 48 hours treatment) was “more profound apoptotic effect”.

Molecule `COc1cccc2c1C(=O)c1c(O)c3c(c(O)c1C2=O)C[C@@](O)(C(=O)CO)C[C@@H]3O[C@H]1C[C@H](N)[C@H](O)[C@H](C)O1` [Doxorubicin, reference compound] has an IC50 (CCRFCEM) of 87 nM, an IC50 (CCRFCEM; Homo sapiens, CCRF-CEM) of 47 nM and an IC50 (MOLT4) of 75 nM. The IC50 (LOXIMVI) was 260 nM, the IC50 (SKMEL5) was 390 nM and the IC50 (HCT15) was 1300 nM. The IC50 (SF539) was 390 nM, the IC50 (MDAMB435) was 970 nM and the IC50 (OVCAR4; Homo sapiens, OVCAR-4, OVCAR4) was 1900 nM. It also gave an IC50 (OVCAR4; OVCAR4) of 1500 nM, an IC50 (NCIH522) of 500 nM and an IC50 (SF295) of 430 nM. It also gave an IC50 (A498) of 650 nM, an IC50 (SKMEL2) of 680 nM and an IC50 (MCF7) of 410 nM. The IC50 (ADRRES) was 11000 nM, the IC50 (CAKI1) was 180 nM and the IC50 (ACHN) was 540 nM. For the same molecule, the IC50 (SNB75; Homo sapiens, SNB-75, SNB75) was 610 nM, the IC50 (SNB75; SNB75) was 580 nM and the IC50 (RXF393) was 1000 nM. For the same molecule, the IC50 (M14) was 810 nM, the IC50 (HL60; HL60) was 130 nM and the IC50 (HL60; Homo sapiens, HL-60, HL60) was 150 nM. For the same molecule, the IC50 (UO31) was 2500 nM.
